What was measured:
ERβ [1] = target: T1, ERβ (Homo sapiens, UniProt Q92731); conditions: HELN-ERβ cells; 500 μM
Text: MELN cells were established by transfecting ER(+) MCF-7 cells with the ERE-β-globin-tk-Luc-SV-Neo plasmid ([36]). HELN cells were generated by transfection of ER(−) HeLa cells with this plasmid. The HELN-ERα, HELN-ERβ, HELN-ΔAB-ERα, and HELN-ΔAB-ERβ cell lines then underwent a second transfection with the corresponding pSG5-puro plasmids (pSG5-ERα-puro, pSG5-ERβ-puro, pSG5-ΔAB-ERα-puro, and pSG5-ΔAB-ERβ-puro, respectively) and expressed wild-type or mutated ERα or ERβ ([39], [40]). […] Luciferase activity was measured using the luciferase assay reagent (Promega), according to the manufacturer’s instructions. Protein concentrations were measured using the Bradford technique ([41]) to normalize the luciferase activity data. For each condition, average luciferase activity was calculated from the data of three independent wells.
Figure 3 Measurement of estrogenicity of tocols in vitro. […] MCF-7 extracts were analyzed for the presence of ERα by western blotting using GAPDH as a control. […] The ratio of ERα to GAPDH levels in each experiment was determined densitometrically and normalized to control value (taken to be 1). […] The relative expression of TGFα, PR, and Ps2 (TFF1) after 16 h was analyzed by quantitative RT-PCR. […]

Ps2 (TFF1) = assay: Quantitative RT-PCR of endogenous E2-regulated gene in MCF-7 cells; format: cell-based, human; conditions: 500 μM, 16 h
Method: (§1) Figure 3 Measurement of estrogenicity of tocols in vitro. (A) Dose–response curve of the effect of tocols on MCF-7 cells stably transfected with the ERE-β-globin-tk-Luc plasmid (MELN cells). […] Data shown are the mean values ± SEM from three independent experiments. (C) δ-TP or δ-TT stabilized ER-α in MCF-7 cells. […] MCF-7 extracts were analyzed for the presence of ERα by western blotting using GAPDH as a control. […] The western blot shown is representative of three independent experiments. […] (D) Effect of δ-tocols on estrogen response element-dependent luciferase activity in HELN cells, which are HELA cells transfected with either fully functional ERα or ERβ or their mutated versions containing a deletion the AB domain (ΔAB). […] Data shown are the mean values ± SEM from three independent experiments. (E) δ-Tocols modulate the induction of endogenous genes under the control of ER. […] Cells were treated with 500 μM δ-tocols in the presence or in the absence of ICI. The relative expression of TGFα, PR, and Ps2 (TFF1) after 16 h was analyzed by quantitative RT-PCR. Data shown are the mean values ± SEM from three independent experiments.

PR = assay: as above; format: cell-based, human; conditions: 500 μM, 16 h
Method: as §1

TGFα = assay: as above; format: cell-based, human; conditions: 500 μM, 16 h
Method: as §1

ERβ [2] = target: T1, ERβ; assay: Estrogen receptor-binding assay, competition with [3H]-17β-estradiol; design: expressed in transfected cells; host or cells: Cos-7; conditions: extracts of cos-7 cells expressing human ERβ; 2 nM [3H]-E2; tocols 1 μM to 1 mM; N.M. = not measurable

T1 sequence (Q92731 whole entry): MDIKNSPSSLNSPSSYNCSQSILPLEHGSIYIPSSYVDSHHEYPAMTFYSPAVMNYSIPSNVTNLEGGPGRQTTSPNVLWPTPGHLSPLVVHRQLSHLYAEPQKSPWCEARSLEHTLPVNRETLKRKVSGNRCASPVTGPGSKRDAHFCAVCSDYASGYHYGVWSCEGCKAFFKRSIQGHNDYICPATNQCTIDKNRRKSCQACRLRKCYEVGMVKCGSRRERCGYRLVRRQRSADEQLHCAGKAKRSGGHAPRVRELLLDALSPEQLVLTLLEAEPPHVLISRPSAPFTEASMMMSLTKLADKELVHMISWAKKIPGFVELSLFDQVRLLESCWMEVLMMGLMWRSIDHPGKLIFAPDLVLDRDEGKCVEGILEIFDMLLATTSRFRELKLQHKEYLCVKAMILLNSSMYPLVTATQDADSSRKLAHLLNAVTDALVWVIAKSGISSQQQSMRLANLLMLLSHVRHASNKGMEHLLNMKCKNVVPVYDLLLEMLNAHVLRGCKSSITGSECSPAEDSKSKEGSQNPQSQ

CC(C)=CCC/C(C)=C/CC/C(C)=C/CC[C@]1(C)CCc2cc(O)cc(C)c2O1 [δ-TT, δ-tocotrienol]
ER-dependent luciferase activity through ERβ (ERβ [1]): activate ER-dependent luciferase activity | transcription of Ps2 (fold increase) (Ps2 (TFF1)): twofold | transcription of PR (fold increase) (PR): 1.6 fold | transcription of TGFα (fold increase) (TGFα): 1.1 fold | IC50 (ERβ [2]): 91 ± 7 µM
